Counter-ions that a name gives are not always drawn.

The subject of the first experiment is HCT116 cells. Kind of experiment: HCT116 cytotoxic activity assay (Alamar Blue, 72 h). The class given is cell-based. The following applies: Homo sapiens, HCT-116, 72 h compound exposure, greater than 500 nM but less than or equal to 2 μM. As for the experimental part: Representative compounds of this invention were tested for cytotoxicity using the above-described assay procedure with the following results: […]
For the molecule `CN1CCN(c2cc(Oc3cccc(Nc4cc(-c5ccccc5)nc(N)n4)c3)ccn2)CC1` [Example 130, N4*-(3-{[2-(4-methylpiperazin-1-yl)pyridin-4-yl]oxy}phenyl)-6-phenylpyrimidine-2,4-diamine], the 50% inhibitory concentration (IC50) was 500 to 2000 nM.

Regarding `Nc1nc(Nc2ccc(Oc3ccnc(N(N)Cc4ccccc4)c3)cc2)cc(-c2ccccc2)n1` [Example 131, N4*-(4-{[2-(1-benzylhydrazino)pyridin-4-yl]oxy}phenyl)-6-phenylpyrimidine-2,4-diamine], the half-inhibitory concentration (IC50) fell in the range of 500 to 2000 nM.

The molecule `CN1CCN(c2cc(Oc3ccc(Nc4cc(-c5ccccc5)nc(N)n4)cc3)ccn2)CC1` [Example 135, N4*-(4-{[2-(4-methylpiperazin-1-yl)pyridin-4-yl]oxy}phenyl)-6-phenylpyrimidine-2,4-diamine] returned a half-inhibitory concentration (IC50) of 500 to 2000 nM.

Regarding `COCCN1CCN(c2cc(Oc3ccc(Nc4cc(-c5ccccc5)nc(N)n4)cc3)ccn2)CC1` [Example 136, N4*-[4-({2-[4-(2-methoxyethyl)piperazin-1-yl]pyridin-4-yl}oxy)phenyl]-6-phenylpyrimidine-2,4-diamine], the IC50 is 500 to 2000 nM.

The molecule `CN(C)CCNc1cc(Oc2ccc(Nc3cc(-c4ccccc4)nc(N)n3)cc2)ccn1` [Example 138, N4*-{4-[(2-{[2-(dimethylamino)ethyl]amino}pyridin-4-yl)oxy]phenyl}-6-phenylpyrimidine-2,4-diamine] gave an IC50 of 500 to 2000 nM.

Consider `CCN(CC)CCCNc1cc(Oc2ccc(Nc3cc(-c4ccccc4)nc(N)n3)cc2)ccn1` [Example 141, N4*-{4-[(2-{[3-(diethylamino)propyl]amino}pyridin-4-yl)oxy]phenyl}-6-phenylpyrimidine-2,4-diamine], for which the IC50 was 500 to 2000 nM.

As to `CN(C)[C@H]1CCN(c2cc(Oc3ccc(Nc4cc(-c5ccccc5)nc(N)n4)cc3)ccn2)C1` [Example 144, N4*-[4-({2-[(3S)-3-(dimethylamino)pyrrolidin-1-yl]pyridin-4-yl}oxy)phenyl]-6-phenylpyrimidine-2,4-diamine], the half-maximal inhibitory concentration (IC50) is 500 to 2000 nM.

Molecule `Nc1nc(Nc2ccc(Oc3ccnc(C(F)(F)F)c3)cc2)cc(-c2ccc(NC(=O)CCC(=O)O)cc2)n1` [Example 148, 4-[(4-{2-amino-6-[(4-{[2-(trifluoromethyl)pyridin-4-yl]oxy}phenyl)amino]pyrimidin-4-yl}phenyl)amino]-4-oxobutanoic acid] gave an IC50 of 500 to 2000 nM.

The same experiment, now with this note: Homo sapiens, HCT-116, 72 h compound exposure, greater than 2 μM.
The molecule `COC[C@H]1CCCN1c1cc(Oc2cccc(Nc3cc(-c4ccccc4)nc(N)n3)c2)ccn1` [Example 147, N4*-[3-({2-[(2R)-2-(methoxymethyl)pyrrolidin-1-yl]pyridin-4-yl}oxy)phenyl]-6-phenylpyrimidine-2,4-diamine] gave an IC50 of over 2000 nM.

The same experiment, now with this note: Homo sapiens, HCT-116, 72 h compound exposure, less than or equal to 500 nM.
Molecule `Nc1nc(Nc2ccc(Oc3ccnc(N(CCO)CCO)c3)cc2)cc(-c2ccccc2)n1` [Example 129, 2,2′-[(4-{4-[(2-amino-6-phenylpyrimidin-4-yl)amino]phenoxy}pyridin-2-yl)imino]diethanol] returned a concentration for half-maximal inhibition (IC50) of at most 500 nM.

For `COC[C@H]1CCCN1c1cc(Oc2ccc(Nc3cc(-c4ccccc4)nc(N)n3)cc2)ccn1` [Example 133, N4*-[4-({2-[(2R)-2-(methoxymethyl)pyrrolidin-1-yl]pyridin-4-yl}oxy)phenyl]-6-phenylpyrimidine-2,4-diamine], the IC50 is at most 500 nM.

In the case of `Nc1nc(Nc2ccc(Oc3ccnc(N4CCOCC4)c3)cc2)cc(-c2ccccc2)n1` [Example 134, N4*-{4-[(2-morpholin-4-ylpyridin-4-yl)oxy]phenyl}-6-phenylpyrimidine-2,4-diamine], the IC50 was at most 500 nM.

Take `COCCN(C)c1cc(Oc2ccc(Nc3cc(-c4ccccc4)nc(N)n3)cc2)ccn1` [Example 137, N4*-[4-({2-[(2-methoxyethyl)(methyl)amino]pyridin-4-yl}oxy)phenyl]-6-phenylpyrimidine-2,4-diamine]: the half-inhibitory concentration (IC50) was at most 500 nM.

For the molecule `Nc1nc(Nc2ccc(Oc3ccnc(N4CCCCC4)c3)cc2)cc(-c2ccccc2)n1` [Example 139, 6-phenyl-N4*-{4-[(2-piperidin-1-ylpyridin-4-yl)oxy]phenyl}pyrimidine-2,4-diamine], the IC50 was at most 500 nM.

For the molecule `COCCN(CCOC)c1cc(Oc2ccc(Nc3cc(-c4ccccc4)nc(N)n3)cc2)ccn1` [Example 140, N4*-[4-({2-[bis(2-methoxyethyl)amino]pyridin-4-yl}oxy)phenyl]-6-phenylpyrimidine-2,4-diamine], the IC50 was at most 500 nM.

`Nc1nc(Nc2ccc(Oc3ccnc(NCCCN4CCOCC4)c3)cc2)cc(-c2ccccc2)n1` [Example 142, N4*-[4-({2-[(3-morpholin-4-ylpropyl)amino]pyridin-4-yl}oxy)phenyl]-6-phenylpyrimidine-2,4-diamine] displayed an IC50 of at most 500 nM.

The molecule `COc1cc(-c2cc(Nc3ccc(Oc4ccnc(N5CCOCC5)c4)cc3)nc(N)n2)ccc1O` [Example 143, 4-[2-amino-6-({4-[(2-morpholin-4-ylpyridin-4-yl)oxy]phenyl}amino)pyrimidin-4-yl]-2-methoxyphenol] registered a 50% inhibitory concentration (IC50) of at most 500 nM.

The molecule `Nc1nc(Nc2ccc(Oc3ccnc(N4CCC[C@H]4CO)c3)cc2)cc(-c2ccccc2)n1` [Example 145, [(2S)-1-(4-{4-[(2-amino-6-phenylpyrimidin-4-yl)amino]phenoxy}pyridin-2-yl)pyrrolidin-2-yl]methanol] came in with an IC50 of at most 500 nM.

As to `Nc1nc(Nc2ccc(Oc3ccnc(N4CC[C@@H](O)C4)c3)cc2)cc(-c2ccccc2)n1` [Example 146, (3R)-1-(4-{4-[(2-amino-6-phenylpyrimidin-4-yl)amino]phenoxy}pyridin-2-yl)pyrrolidin-3-ol], the IC50 is at most 500 nM.

Turning to `COc1cc(-c2cc(Nc3ccc(Oc4ccnc(C(F)(F)F)c4)cc3)nc(N)n2)ccc1OC(=O)CNC(=O)OC(C)(C)C` [Example 149, 4-{2-amino-6-[(4-{[2-(trifluoromethyl)pyridin-4-yl]oxy}phenyl)amino]pyrimidin-4-yl}-2-methoxyphenyl N-(tert-butoxycarbonyl)glycinate], the half-inhibitory concentration (IC50) was at most 500 nM.

In turn, `COc1cc(-c2cc(Nc3ccc(Oc4ccnc(C(F)(F)F)c4)cc3)nc(N)n2)ccc1OC(=O)CN` [Example 150, 4-{2-amino-6-[(4-{[2-(trifluoromethyl)pyridin-4-yl]oxy}phenyl)amino]pyrimidin-4-yl}-2-methoxyphenyl glycinate hydrochloride] displayed an IC50 of at most 500 nM.

For the molecule `COc1cc(-c2cc(Nc3ccc(Oc4ccnc(C(F)(F)F)c4)cc3)nc(N)n2)ccc1N` [Example 153, 6-(4-amino-3-methoxyphenyl)-N4*-(4-{[2-(trifluoromethyl)pyridin-4-yl]oxy}phenyl) pyrimidine-2,4-diamine], the 50% inhibitory concentration (IC50) was at most 500 nM.

The molecule `Cc1ccccc1-c1cc(Nc2ccc(Oc3ccnc(CN)c3)cc2)nc(N)n1` [Example 154, N4*-(4-{[2-(aminomethyl)pyridin-4-yl]oxy}phenyl)-6-(2-methylphenyl) pyrimidine-2,4-diamine] returned an IC50 of at most 500 nM.

Take `Nc1nc(Nc2ccc(Oc3ccnc(C(F)(F)F)c3)cc2)cc(-c2ccccc2C(F)(F)F)n1` [Example 155, 6-[2-(trifluoromethyl)phenyl]-N4*-(4-{[2-(trifluoromethyl)pyridin-4-yl]oxy}phenyl)pyrimidine-2,4-diamine]: the IC50 was at most 500 nM.

The molecule `CCc1ccccc1-c1cc(Nc2ccc(Oc3ccnc(C(F)(F)F)c3)cc2)nc(N)n1` [Example 156, 6-(2-ethylphenyl)-N4*-(4-{[2-(trifluoromethyl)pyridin-4-yl]oxy}phenyl) pyrimidine-2,4-diamine] displayed an IC50 of at most 500 nM.

For the origin of these results see patent US7582645B2, “Pyrimidine derivatives for treatment of hyperproliferative disorders” (Bayer Pharmaceuticals Corporation, priority 2003, dated 2009).
